Data from patent US12509460B2 (Skyhawk Therapeutics, Inc., priority 2019, dated 2025).
pEC50: −log10 of the molar value. Where two headings read alike, the source gives them in different places.

Assays:
[1] = tested on: mHTT protein in GM04724 (CAG 70/20) Huntington's disease patient lymphoblast cells; assay: mHTT protein assay, 2B7-MW1 assay via Mesoscale Discovery (MSD); format: cell-based, human
Method in brief: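 Signal from the 2B7-MW1 antibody pair on MSD, rising with polyQ length and smaller HTT fragments, measured mHTT after 48 h compound exposure (0.6 nM–10 μM) in GM04724 cells. A parallel replicate plate gave CellTiter Glo viability.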

[2] = tested on: SMN FL and SMN Δ7 in spinal muscular atrophy (SMA) patient fibroblasts (GM03813, Coriell); assay: Quantitative splicing assay (SMN), qPCR; format: cell-based, human; settings: Homo sapiens, Fibroblast, 24 h, read-out: SMN2 Splicing FL EC50
Description: Spinal muscular atrophy (SMA) patient fibroblasts (GM03813, Coriell) are plated in 96-well plates at 50,000 cells/well. […] Treated cells are lysed and cDNA synthesized using the Fast Advanced Cells-to-Ct kit (Thermofisher A35378) according to the manufacturer's instructions. 2 μL of each cDNA are used in qPCR reactions. […] Reactions are run in a Quant Studio 6 qPCR instrument with default settings.

[3] = tested on: SMN protein in spinal muscular atrophy (SMA) patient fibroblasts (GM03813, Coriell); assay: SMN protein assay, Mesoscale Discovery (MSD); format: cell-based, human; settings: read-out: SMN2 protein EC50
Method in brief: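 Absolute SMN levels were quantified by MSD against an SMN protein standard curve (1 μg/ml to 19.5 pg/ml) run on each plate. Samples were lysates of GM03813 patient fibroblasts (7000 cells/well) treated 48 hours with compound doses from 2.5 μM down to 0.6 nM.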

MDR1 (P-gp) = assay: Blood-brain-barrier (BBB) penetration potential via MDCK-MDR1 permeability assay; settings: dog; for Papp A→B at 120 min, 5 μM: MDCK-MDR1, pH 7.4, MDCK-MDR1: Papp A-B; for Papp B→A at 120 min, 5 μM: MDCK-MDR1, pH 7.4, MDCK-MDR1: Papp B-A
[4] = tested on: MDR1-MDCK cell monolayers; assay: as above
MDR1 = assay: as above; settings: dog, MDCK-MDR1, pH 7.4, MDCK-MDR1: Efflux
[5] = GM04724 Huntington's disease patient lymphoblasts
[6] = SMA patient fibroblasts GM03813, 24 h, qPCR
[7] = SMA patient fibroblasts GM03813, 48 hours, MSD
[8] = GM04724 (CAG 70/20) Huntington's disease patient lymphoblasts
[9] = SMA patient fibroblasts (GM03813)
[10] = SMA patient fibroblasts (GM03813), 48 hours

Compound	pEC50 [1, 5]	pEC50 [2, 6]	pEC50 [3, 7]	Papp A→B at 120 min, 5 μM (MDR1 (P-gp); A-B direction) [×10⁻⁶ cm/s]	Papp B→A at 120 min, 5 μM (MDR1 (P-gp); B-A direction) [×10⁻⁶ cm/s]	MDCK-MDR1: % Recov A-B ([4]; A-B direction) [%]	MDCK-MDR1: % Recov B-A ([4]; B-A direction) [%]	efflux ratio at 120 min, 5 μM (MDR1; efflux ratio)	pEC50 [1, 8]	pEC50 [2, 9]	pEC50 [3, 10]	Papp A→B at 120 min, 5 μM (MDR1 (P-gp); A-B) [×10⁻⁶ cm/s]	Papp B→A at 120 min, 5 μM (MDR1 (P-gp); B-A) [×10⁻⁶ cm/s]	MDCK-MDR1: % Recov A-B ([4]; A-B) [%]	MDCK-MDR1: % Recov B-A ([4]; B-A) [%]	efflux ratio at 120 min, 5 μM (MDR1)	mHTT protein EC50 [1, 5]	mHTT protein EC50 [1, 8]
CC#Cc1ccc(-c2ccc(N(C)[C@@H]3C[C@H]4CC[C@H](N4)[C@@H]3F)nn2)c(O)c1 (single isomer, unassigned) [Compound 30A]	7.30 to 7.80	7.00 to 7.29	7.82 to 11.00	11.1	19.7	35	55	2	–	–	–	–	–	–	–	–	–	–
CN(c1ccc(-c2cc3ncn(CC(F)(F)F)c(=O)c3cc2O)nn1)[C@@H]1C[C@H]2CC(F)(F)[C@@H](C1)N2 [Compound 59A, 7-(6-(((1S,3R,5R)-6,6-difluoro-8-azabicyclo[3.2.1]octan-3-yl)(methyl)amino)pyridazin-3-yl)-6-hydroxy-3-(2,2,2-trifluoroethyl)quinazolin-4(3H)-one]	6.30 to 7.00	7.00 to 7.29	7.30 to 7.80	2.11	74	97	96	35	–	–	–	–	–	–	–	–	–	–
CN(c1ccc(-c2cc3oc(=O)n(C)c3cc2O)nn1)[C@H]1C[C@@H]2CC[C@@H](N2)[C@H]1F (single isomer, unassigned) [Compound 79B]	7.00 to 7.29	6.30 to 7.00	7.30 to 7.80	2.69	42.9	90	99	16	–	–	–	–	–	–	–	–	–	–
CN(c1ccc(-c2cc3ncn(CC(F)(F)F)c(=O)c3cc2O)nn1)[C@@H]1C[C@H]2CCC[C@H](N2)[C@@H]1F [Compound 58A, 7-(6-(((1S,2S,3R,5R)-2-fluoro-9-azabicyclo[3.3.1]nonan-3-yl)(methyl)amino)pyridazin-3-yl)-6-hydroxy-3-(2,2,2-trifluoroethyl)quinazolin-4(3H)-one]	6.30 to 7.00	6.30 to 7.00	7.82 to 11.00	0.36	71.4	86	89	201	–	–	–	–	–	–	–	–	–	–
CN(c1ccc(-c2ccc(-c3cnn(C(F)F)c3)cc2O)nn1)[C@@H]1C[C@H]2CCC[C@H](N2)[C@@H]1F [Compound 21A, 5-(1-(difluoromethyl)-1H-pyrazol-4-yl)-2-(6-(((1S,2S,3R,5R)-2-fluoro-9-azabicyclo[3.3.1]nonan-3-yl)(methyl)amino)pyridazin-3-yl)phenol]	7.30 to 7.80	7.00 to 7.29	7.82 to 11.00	1.99	19.3	34	71	10	–	–	–	–	–	–	–	–	–	–
CN(c1ccc(-c2cc3ncn(C)c(=O)c3cc2O)nn1)[C@H]1C[C@@H]2CC[C@H]([C@H]1F)N2C [Compound 101B, 7-(6-(((1R,2R,3S,5S)-2-fluoro-8-methyl-8-azabicyclo[3.2.1]octan-3-yl)(methyl)amino)pyridazin-3-yl)-6-hydroxy-3-methylquinazolin-4(3H)-one]	–	–	–	–	–	–	–	–	7.00 to 7.29	7.00 to 7.29	7.82 to 11.00	2.41	59.1	118	119	24	–	–
CN(c1ccc(-c2ccc(-n3ccnn3)cc2O)nn1)[C@@H]1C[C@H]2CC[C@H](N2)[C@@H]1F [Compound 61A, 2-(6-(((1S,2S,3R,5R)-2-fluoro-8-azabicyclo[3.2.1]octan-3-yl)(methyl)amino)pyridazin-3-yl)-5-(1H-1,2,3-triazol-1-yl)phenol]	7.30 to 7.80	7.30 to 7.80	7.82 to 11.00	4.29	60.3	91	88	14	–	–	–	–	–	–	–	–	–	–
CN(c1ccc(-c2cc3ncn(CC(F)(F)F)c(=O)c3cc2O)nn1)[C@H]1C[C@@H]2CCC[C@@H](N2)[C@H]1F [Compound 58B, 7-(6-(((1R,2R,3S,5S)-2-fluoro-9-azabicyclo[3.3.1]nonan-3-yl)(methyl)amino)pyridazin-3-yl)-6-hydroxy-3-(2,2,2-trifluoroethyl)quinazolin-4(3H)-one]	–	7.82 to 11.00	7.82 to 11.00	0.43	53.9	76	85	126	–	–	–	–	–	–	–	–	E (501 ≤ E ≤ 10.000)	–
CN(c1ccc(-c2cc3oc(C(=O)N4CCC4)cc3cc2O)nn1)[C@H]1C[C@@H]2CC[C@H]([C@H]1F)N2C [Compound 107B, azetidin-1-yl(6-(6-(((1R,2R,3S,5S)-2-fluoro-8-methyl-8-azabicyclo[3.2.1]octan-3-yl)(methyl)amino)pyridazin-3-yl)-5-hydroxybenzofuran-2-yl)methanone]	–	–	–	–	–	–	–	–	–	6.30 to 7.00	7.30 to 7.80	0.99	46.3	76	84	47	–	E (501 ≤ E ≤ 10.000)
CN(c1ccc(-c2ccc(-n3ccnc3)cc2O)nn1)[C@@H]1C[C@H]2CCC[C@H](N2)[C@@H]1F [Compound 11A, 2-(6-(((1S,2S,3R,5R)-2-fluoro-9-azabicyclo[3.3.1]nonan-3-yl)(methyl)amino)pyridazin-3-yl)-5-(1H-imidazol-1-yl)phenol]	7.82 to 11.00	7.00 to 7.29	7.82 to 11.00	2.76	53.2	79	90	19	–	–	–	–	–	–	–	–	–	–
CN(c1ccc(-c2cc3ncn(CC(F)(F)F)c(=O)c3cc2O)nn1)[C@H]1C[C@@H]2CC[C@@H](N2)[C@H]1F [Compound 81B, 7-(6-(((1R,2R,3S,5S)-2-fluoro-8-azabicyclo[3.2.1]octan-3-yl)(methyl)amino)pyridazin-3-yl)-6-hydroxy-3-(2,2,2-trifluoroethyl)quinazolin-4(3H)-one]	7.00 to 7.29	7.30 to 7.80	7.82 to 11.00	0.4	54.6	96	100	138	–	–	–	–	–	–	–	–	–	–
Cc1cc(=O)c2cc(-c3ccc(N(C)[C@@H]4C[C@H]5CC[C@@H]([C@@H]4F)N5C)nn3)c(O)cc2o1 [Compound 100A, 6-(6-(((1S,2S,3R,5R)-2-fluoro-8-methyl-8-azabicyclo[3.2.1]octan-3-yl)(methyl)amino)pyridazin-3-yl)-7-hydroxy-2-methyl-4H-chromen-4-one]	–	–	–	–	–	–	–	–	–	6.30 to 7.00	7.00 to 7.29	6.34	40.7	80	102	6	–	E (501 ≤ E ≤ 10.000)
CN(c1ccc(-c2ccc(-n3cnc(C#N)c3)cc2O)nn1)[C@H]1C[C@@H]2CC[C@@H](N2)[C@H]1F [Compound 69B, 1-(4-(6-(((1R,2R,3S,5S)-2-fluoro-8-azabicyclo[3.2.1]octan-3-yl)(methyl)amino)pyridazin-3-yl)-3-hydroxyphenyl)-1H-imidazole-4-carbonitrile]	7.30 to 7.80	7.00 to 7.29	7.82 to 11.00	1.51	52.3	88	90	35	–	–	–	–	–	–	–	–	–	–
CN(c1ccc(-c2cc(F)c(-n3ccnn3)cc2O)nn1)[C@H]1C[C@@H]2CC[C@H]([C@H]1F)N2C [Compound 103B, 4-fluoro-2-(6-(((1R,2R,3S,5S)-2-fluoro-8-methyl-8-azabicyclo[3.2.1]octan-3-yl)(methyl)amino)pyridazin-3-yl)-5-(1H-1,2,3-triazol-1-yl)phenol]	–	–	–	–	–	–	–	–	–	6.30 to 7.00	7.00 to 7.29	12.6	49.1	95	94	4	–	E (501 ≤ E ≤ 10.000)
